Assay results published in publication PMC10840383, “Clinical features, functional consequences, and rescue pharmacology of missense GRID1 and GRID2 human variants” (Human Molecular Genetics, 2023).
Residue numbers refer to the chain shown, from its start. Entries after “also recorded” stand apart in the source; their conditions may differ. Read-outs that look alike come from different tables or passages of the source. Each block holds one compound with its values, some of them ahead of it.

Assays:
Type in all cases: cell-based
GluD2-L656V = biological target: T1, GluD2-L656V (Rattus norvegicus, UniProt Q63226, L656V); test: TEVC of constitutive current, Xenopus oocytes expressing GluD2-L656V
T1 construct: expressed in transfected cells; host or cells: Xenopus laevis oocytes injected with cRNA
T1 sequence (Q63226 24-1007 L656V): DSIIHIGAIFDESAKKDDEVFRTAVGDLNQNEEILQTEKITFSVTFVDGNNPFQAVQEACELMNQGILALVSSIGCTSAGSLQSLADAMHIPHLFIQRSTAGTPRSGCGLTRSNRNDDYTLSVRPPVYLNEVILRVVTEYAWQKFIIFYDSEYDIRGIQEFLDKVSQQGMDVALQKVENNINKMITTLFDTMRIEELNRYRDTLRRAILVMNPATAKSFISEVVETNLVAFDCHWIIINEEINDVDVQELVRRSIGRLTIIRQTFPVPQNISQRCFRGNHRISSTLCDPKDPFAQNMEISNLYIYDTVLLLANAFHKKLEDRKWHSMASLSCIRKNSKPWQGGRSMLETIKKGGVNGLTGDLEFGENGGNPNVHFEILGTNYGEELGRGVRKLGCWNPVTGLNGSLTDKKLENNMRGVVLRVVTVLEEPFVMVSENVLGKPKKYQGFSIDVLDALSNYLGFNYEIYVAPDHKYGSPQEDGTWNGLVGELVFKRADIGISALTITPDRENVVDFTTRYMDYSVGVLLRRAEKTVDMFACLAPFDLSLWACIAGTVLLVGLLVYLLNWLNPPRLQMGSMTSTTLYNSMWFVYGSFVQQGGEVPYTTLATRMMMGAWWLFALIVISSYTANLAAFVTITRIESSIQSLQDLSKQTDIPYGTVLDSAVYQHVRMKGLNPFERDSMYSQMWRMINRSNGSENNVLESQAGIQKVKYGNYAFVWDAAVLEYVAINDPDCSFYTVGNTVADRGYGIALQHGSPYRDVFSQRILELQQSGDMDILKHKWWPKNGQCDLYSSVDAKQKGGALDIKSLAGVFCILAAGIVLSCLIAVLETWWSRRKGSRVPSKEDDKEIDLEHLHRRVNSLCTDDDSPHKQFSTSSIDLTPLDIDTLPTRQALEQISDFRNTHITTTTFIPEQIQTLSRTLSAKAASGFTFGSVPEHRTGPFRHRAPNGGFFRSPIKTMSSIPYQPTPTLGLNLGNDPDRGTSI

GluD2-A654D = biological target: T2, GluD2-A654D (Rattus norvegicus, UniProt Q63226, A654D); test: TEVC of constitutive current, Xenopus oocytes expressing GluD2-A654D
T2 construct: expressed in transfected cells; host or cells: Xenopus laevis oocytes injected with cRNA
T2 sequence (Q63226 24-1007 A654D): T1 sequence (Q63226 24-1007 L656V) with A631D, V633L

GluD2-A654T = biological target: T3, GluD2-A654T (Rattus norvegicus, UniProt Q63226, A654T); test: TEVC of constitutive current, Xenopus oocytes expressing GluD2-A654T (lurcher)
T3 construct: expressed in transfected cells; host or cells: Xenopus laevis oocytes injected with cRNA
T3 sequence (Q63226 24-1007 A654T): T1 sequence (Q63226 24-1007 L656V) with A631T, V633L

[1] = 100 μM pentamidine, positive = increase, negative = decrease of activity
[2] = inhibition of constitutive current, read-out: Memantine IC50
[3] = 10 mM D-serine, positive = increase, negative = decrease of activity
[4] = percent of constitutive leak current (NMDG+/Na+ difference current)
[5] = normalized to NMDG+ − Na+ difference current
[6] = potentiation of constitutive current, read-out: Ca2+ EC50 [95% CI]

Structure (SMILES): N=C(N)c1ccc(OCCCCCOc2ccc(C(=N)N)cc2)cc1 [Pentamidine, pentamidine]
Pentamidine effect (Baseline −100 μM Pentamidine) (GluD2-L656V; [1]): −640 ± 190 (12) nA
IC50 (GluD2-L656V; read-out: Pentamidine IC50): 10 µM
Pentamidine effect (Baseline −100 μM Pentamidine) (GluD2-A654D; [1]): −700 ± 160 (14) nA
IC50 (GluD2-A654D; read-out: Pentamidine IC50): 3.7 µM
Pentamidine effect (Baseline −100 μM Pentamidine) (GluD2-A654T; [1]): −930 ± 130 (14) nA
IC50 (GluD2-A654T; read-out: Pentamidine IC50): 9.6 µM

IC50 (GluD2-A654D; [2]): 55 µM
IC50 (GluD2-A654T; [2]): 89 µM
Structure (SMILES): CC12CC3CC(C)(C1)CC(N)(C3)C2 [Memantine, memantine]

Reduction of maximum possible activity (Na+ −NMDG+ difference current) by D-serine (GluD2-L656V; 10 mM D-serine): ~ 50%
D-Serine effect (Baseline −10 mM D-Serine) (GluD2-L656V; [3]): −460 ± 53 (12) nA
D-serine % Max (NMDG+ − Na+) Mean ± SEM (GluD2-L656V; [4]): 62 ± 3.2 (14) %
D-Serine effect (Baseline −10 mM D-Serine) (GluD2-A654D; [3]): −29 ± 10 (14) nA
D-serine % Max (NMDG+ − Na+) Mean ± SEM (GluD2-A654D; [4]): 85 ± 2.6 (15) %
D-serine Hill slope (GluD2-A654T; 1 mM Ca2+, Fig. S7B): 2.5
D-serine Maximum (GluD2-A654T; 1 mM Ca2+, Fig. S7B): 73%
Reduction of maximum possible activity (Na+ −NMDG+ difference current) by D-serine (GluD2-A654T; 10 mM D-serine): ~ 50%
D-Serine effect (Baseline −10 mM D-Serine) (GluD2-A654T; [3]): −1000 ± 130 (14) nA
D-serine % Max (NMDG+ − Na+) Mean ± SEM (GluD2-A654T; [4]): 51 ± 1.3 (32) %
Structure (SMILES): N[C@H](CO)C(=O)O [D-serine]
Effect on constitutive current, in words (GluD2-A654D): little effect; also recorded: near complete loss of D-serine potency

Ca2+ % Max (NMDG+ − Na+) Mean ± SEM (GluD2-L656V; [5]): 260 ± 9.9 (11) %
EC50 (GluD2-L656V; [6]): 170 µM
Ca2+ EC50 A654T/EC50 variant (GluD2-L656V; ratio): 0.88
EC50 (GluD2-L656V; read-out: Ca2+ potentiation EC50): 100 to 400 µM
EC50 (GluD2-A654D; modulation of constitutive current, inhibited by Ca2+ (not potentiated), read-out: Ca2+ EC50 [95% CI]): 170 µM
Ca2+ % Max (NMDG+ − Na+) Mean ± SEM (GluD2-A654D; [5]): 82 ± 10 (12) %
Ca2+ EC50 A654T/EC50 variant (GluD2-A654D; ratio): 0.88
Ca2+ EC50 of the relation Ca2+ concentration vs D-serine IC50 (GluD2-A654T; Hill fit, Fig. S7A): 590 µM
Hill slope of the relation Ca2+ concentration vs D-serine IC50 (GluD2-A654T; Hill fit, Fig. S7A): 1.1
Ca2+ % Max (NMDG+ − Na+) Mean ± SEM (GluD2-A654T; [5]): 299 ± 5.8 (32) %
EC50 (GluD2-A654T; [6]): 150 µM
Ca2+ EC50 A654T/EC50 variant (GluD2-A654T; ratio): 1.0
Structure (SMILES): [Ca+2] [Ca^2+]
Effect on constitutive current, in words (GluD2-A654D): weak inhibitor; also recorded: modestly inhibited
